Measurements as given in ChEMBL document CHEMBL1133902, “Biflavonoids as novel antituberculosis agents” (2001).
Values after ≈ are worked out from the molar mass of the structure shown.

The compounds below were run on Mycobacterium tuberculosis (assay: Antituberculosis activity against Mycobacterium tuberculosis at a concentration of 12.5 ug/mL).
Assay type: functional

Going from COc1ccc(C2CC(=O)c3c(cc(OC)c(-c4c(OC)cc5c(c4OC)C(=O)CC(c4ccc(OC)cc4)O5)c3OC)O2)cc1 (centres undefined) to COc1ccc(C2CC(=O)c3c(OC)cc(OC)c(C4C(=O)c5c(OC)cc(OC)cc5OC4c4ccc(OC)cc4)c3O2)cc1 (centres undefined), the inhibition at 12.5 µg/mL rises from 2% to 87%.

O=C1CC(c2ccc(O)cc2)Oc2c1c(O)cc(O[C@]1(O)O[C@H](CO)[C@@H](O)C(O)[C@H]1O)c2C1C(=O)c2c(O)cc(O)cc2OC1c1ccc(O)cc1 (single isomer, unassigned) and O=C1CC(c2ccc(O)c(O)c2)Oc2c1c(O)cc(O[C@]1(O)O[C@H](CO)[C@@H](O)C(O)[C@H]1O)c2C1C(=O)c2c(O)cc(O)cc2OC1c1ccc(O)cc1 (single isomer, unassigned) are the same in inhibition at 12.5 µg/mL: 0% for the first, 0% for the second.

O=C1c2c(O)cc(O)cc2OC(c2ccc(O)cc2)C1c1c(O)cc(O)c2c(=O)cc(-c3ccc(O)c(O)c3)oc12 (centres undefined) and O=C1CC(c2ccc(O)c(O)c2)Oc2c1c(O)cc(O)c2C1C(=O)c2c(O)cc(O)cc2OC1c1ccc(O)cc1 (centres undefined) are the same in inhibition at 12.5 µg/mL: 0% for the first, 0% for the second.

Going from O=c1cc(-c2cccc(-c3ccc4c(=O)cc(-c5ccccc5)oc4c3)c2)oc2ccccc12 to O=c1cc(-c2cccc(-c3cccc4c(=O)cc(-c5ccccc5)oc34)c2)oc2ccccc12, the inhibition at 12.5 µg/mL rises from 0% to 49%.

Going from COc1ccc(-c2cc(=O)c3c(OC)c(-c4cc(OC)ccc4-c4cc(=O)c5c(OC)cc(OC)cc5o4)c(OC)cc3o2)cc1 to COc1ccc(-c2cc(=O)c3c(OC)c(-c4c(OC)cc5oc(-c6ccc(OC)cc6)cc(=O)c5c4OC)c(OC)cc3o2)cc1, the inhibition at 12.5 µg/mL rises from 1% to 96%.

O=C1c2c(O)cc(O)cc2OC(c2ccc(O)cc2)C1c1c(O[C@]2(O)O[C@H](CO)[C@@H](O)C(O)[C@H]2O)cc(O)c2c(=O)cc(-c3ccc(O)cc3)oc12 (single isomer, unassigned) and O=c1cc(-c2ccc(O)c(-c3c(O)cc(O)c4c(=O)cc(-c5ccc(O)cc5)oc34)c2)oc2cc(O)cc(O)c12 [AMENTOFLAVONE] are the same in inhibition at 12.5 µg/mL: 0% for the first, 0% for the second.

O=C1CC(c2ccc(O)cc2)Oc2cc(O)c(-c3c(O)cc4c(c3O)C(=O)CC(c3ccc(O)cc3)O4)c(O)c21 (centres undefined) and O=C1CC(c2ccc(O)cc2)Oc2cc(O)c(-c3c(O)cc(O)c4c3OC(c3ccc(O)cc3)CC4=O)c(O)c21 (centres undefined) are the same in inhibition at 12.5 µg/mL: 0% for the first, 0% for the second.

Going from COc1ccc(-c2cc(=O)c3c(OC)cc(OC)c(C4C(=O)c5c(OC)cc(OC)cc5OC4c4ccc(OC)cc4)c3o2)cc1 (centres undefined) to COc1ccc(-c2oc3cc(OC)cc(OC)c3c(=O)c2-c2c(-c3ccc(OC)cc3)oc3cc(OC)cc(OC)c3c2=O)cc1, the inhibition at 12.5 µg/mL falls from 95% to 0%.

CC(=O)OC[C@H]1O[C@@](O)(Oc2cc(OC(C)=O)c3c(c2C2C(=O)c4c(OC(C)=O)cc(OC(C)=O)cc4OC2c2ccc(OC(C)=O)cc2)OC(c2ccc(OC(C)=O)cc2)CC3=O)[C@H](O)C(O)[C@@H]1O (single isomer, unassigned) and CC(=O)Oc1ccc(C2Oc3cc(OC(C)=O)cc(OC(C)=O)c3C(=O)C2c2c(OC(C)=O)cc(OC(C)=O)c3c2OC(c2ccc(OC(C)=O)c(OC(C)=O)c2)CC3=O)cc1 (centres undefined) are the same in inhibition at 12.5 µg/mL: 0% for the first, 0% for the second.

O=c1cc(-c2ccc(O)c(-c3c(O)cc4oc(-c5ccc(O)cc5)cc(=O)c4c3O)c2)oc2cc(O)cc(O)c12 [ROBUSTAFLAVONE] and O=c1cc(-c2ccc(Oc3c(O)cc4oc(-c5ccc(O)cc5)cc(=O)c4c3O)cc2)oc2cc(O)cc(O)c12 [HINOKIFLAVONE] are the same in inhibition at 12.5 µg/mL: 0% for the first, 0% for the second.

CC(=O)Oc1ccc(C2CC(=O)c3c(cc(OC(C)=O)c(-c4c(OC(C)=O)cc(OC(C)=O)c5c4OC(c4ccc(OC(C)=O)cc4)CC5=O)c3OC(C)=O)O2)cc1 (centres undefined) and CC(=O)Oc1ccc(C2CC(=O)c3c(cc(OC(C)=O)c(-c4c(OC(C)=O)cc5c(c4OC(C)=O)C(=O)CC(c4ccc(OC(C)=O)cc4)O5)c3OC(C)=O)O2)cc1 (centres undefined) are the same in inhibition at 12.5 µg/mL: 0% for the first, 0% for the second.

COc1ccc2c(c1)OC(c1ccccc1)C(C1C(=O)c3ccc(OC)cc3OC1c1ccccc1)C2=O (centres undefined) and O=c1cc(-c2ccccc2-c2cccc3c(=O)cc(-c4ccccc4)oc23)oc2ccccc12 are the same in inhibition at 12.5 µg/mL: 0% for the first, 0% for the second.

First: O=c1cc(-c2ccccc2)oc2ccc(-c3ccccc3-c3cc(=O)c4ccccc4o3)cc12
Second: O=c1cc(-c2ccc(Oc3c(-c4cccc([N+](=O)[O-])c4)oc4ccccc4c3=O)cc2)oc2ccccc12
The inhibition at 12.5 µg/mL of the first is lower: 9% for the first, 61% for the second.

These compounds were tested on Mycobacterium tuberculosis (assay: Minimum inhibitory concentration against Mycobacterium tuberculosis).
Assay type: functional

First: COc1ccc(-c2cc(=O)c3c(OC)cc(OC)c(C4C(=O)c5c(OC)cc(OC)cc5OC4c4ccc(OC)cc4)c3o2)cc1 (centres undefined)
Second: COc1ccc(C2CC(=O)c3c(OC)cc(OC)c(C4C(=O)c5c(OC)cc(OC)cc5OC4c4ccc(OC)cc4)c3O2)cc1 (centres undefined)
The MIC of the first is lower: 12.5 µg/mL (≈ 20 µM) for the first, greater than 12.5 µg/mL for the second.

Work on COc1ccc(-c2cc(=O)c3c(OC)c(-c4c(OC)cc5oc(-c6ccc(OC)cc6)cc(=O)c5c4OC)c(OC)cc3o2)cc1 yielded an MIC greater than 12.5 µg/mL.
